In ChEMBL document CHEMBL4385605, “Synthesis and Structure-Affinity Relationships of Spirocyclic Benzopyrans with Exocyclic Amino Moiety” (J Med Chem, 2019):
The source made the active and inactive calls. No cut-off for these calls is given here.

Legend:
[1] = biological target: Kappa-type opioid receptor (Cavia porcellus, UniProt P41144); assay: Displacement of [3H]U69,593 from kappa opioid receptor in guinea pig brain membrane after 120 mins by scintillation counting analysis; assay type: cell membranes
[2] = biological target: Delta-type opioid receptor (Rattus norvegicus) (UniProt P33533); assay: Displacement of [3H]DPDPE from delta opioid receptor in rat membrane at 1 uM after 120 mins by scintillation counting analysis relative to control; assay type: cell membranes
Mu-type opioid receptor [3] = biological target: Mu-type opioid receptor (Cavia porcellus, UniProt P97266); assay: Displacement of [3H]DAMGO from mu opioid receptor in guinea pig brain membranes after 120 mins by scintillation counting analysis; assay type: cell membranes
[4] = biological target: Sigma non-opioid intracellular receptor 1 (Cavia porcellus, UniProt Q60492); assay: Displacement of [3H](+)-pentazocine from sigma 1 receptor in guinea pig brain cortex membranes after 120 mins by scintillation counting analysis; assay type: cell membranes
[5] = Selectivity ratio of Ki for displacement of [3H]DTG from sigma2 receptor in rat liver membranes to Ki for displacement of (+)-[3H]pentazocine from sigma 1 receptor in guinea pig brain cortex membranes; assay type: cell membranes
[6] = biological target: Sigma intracellular receptor 2 (Rattus norvegicus) (UniProt Q5U3Y7); assay: Displacement of [3H]-di-o-tolylguanidine from sigma2 receptor in rat liver membranes at 1 uM incubated for 120 mins in the presence of sigma1 receptor ligand (+)-pentazocine by scintillation counting method relative to control; assay type: cell membranes
[7] = biological target: Sigma intracellular receptor 2 (Homo sapiens, UniProt Q5BJF2); assay: Displacement of [3H]-di-o-tolylguanidine from sigma2 receptor in human RT4 cell membranes at 1 uM after 120 mins in the presence of sigma1 receptor ligand (+)-pentazocine by scintillation counting method relative to control
[8] = biological target: T1, Sigma intracellular receptor 2 (Rattus norvegicus, UniProt Q5U3Y7); assay: Displacement of [3H]-di-o-tolylguanidine from sigma2 receptor in rat liver membranes incubated for 120 mins in the presence of sigma1 receptor ligand (+)-pentazocine by scintillation counting method; assay type: cell membranes
T1 sequence (Q5U3Y7 whole entry): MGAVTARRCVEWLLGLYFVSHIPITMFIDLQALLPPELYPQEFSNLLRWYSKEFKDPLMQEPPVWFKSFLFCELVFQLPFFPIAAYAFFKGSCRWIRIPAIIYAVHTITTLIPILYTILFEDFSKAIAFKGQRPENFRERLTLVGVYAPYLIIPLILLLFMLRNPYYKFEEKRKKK

Cavia porcellus = species: Cavia porcellus; assay: Selectivity ratio of Ki for displacement of [3H](+)-pentazocine from sigma 1 receptor in guinea pig brain cortex membranes to Ki for displacement of [3H]DAMGO from mu opioid receptor in guinea pig brain membranes; assay type: cell membranes
Sus scrofa = species: Sus scrofa; assay: Displacement of [3H]-(+)-MK-801 from PCP binding site of NMDA receptor in pig brain cortex membranes up to 1 uM after 120 mins by scintillation counting analysis; assay type: cell membranes
[9] = biological target: Delta-type opioid receptor (Rattus norvegicus, UniProt P33533); assay: Displacement of [3H]DPDPE from delta opioid receptor in rat membranes after 120 mins by scintillation counting analysis; assay type: cell membranes
[10] = biological target: Sigma non-opioid intracellular receptor 1 (Homo sapiens, UniProt Q99720); assay: Displacement of [3H](+)-pentazocine from sigma 1 receptor in human RPMI8226 cell membranes incubated for 2 hrs under shaking by scintillation counting analysis
Cytochrome P450 1A2 = biological target: T2, Cytochrome P450 1A2 (Homo sapiens, UniProt P05177); assay: Inhibition of recombinant human CYP1A2 at 1 uM by fluorescence assay; assay type: ADME; details: recombinant enzyme
T2 sequence (P05177 whole entry): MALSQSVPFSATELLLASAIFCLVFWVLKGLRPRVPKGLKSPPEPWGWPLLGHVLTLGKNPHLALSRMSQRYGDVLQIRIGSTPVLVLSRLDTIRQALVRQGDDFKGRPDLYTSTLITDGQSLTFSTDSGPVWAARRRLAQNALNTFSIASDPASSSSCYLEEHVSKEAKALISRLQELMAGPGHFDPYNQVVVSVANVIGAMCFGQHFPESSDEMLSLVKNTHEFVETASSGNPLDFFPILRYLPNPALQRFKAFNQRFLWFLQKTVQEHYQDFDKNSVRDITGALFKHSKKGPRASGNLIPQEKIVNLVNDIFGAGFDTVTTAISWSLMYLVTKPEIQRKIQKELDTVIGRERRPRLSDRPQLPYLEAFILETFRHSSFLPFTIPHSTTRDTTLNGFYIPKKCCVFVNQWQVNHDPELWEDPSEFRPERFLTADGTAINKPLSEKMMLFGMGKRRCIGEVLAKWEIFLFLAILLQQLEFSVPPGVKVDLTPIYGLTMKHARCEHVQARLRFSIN

Cytochrome P450 3A4 = Cytochrome P450 3A4 (Homo sapiens, UniProt P08684); assay: Inhibition of recombinant human CYP3A4 at 1 uM by fluorescence assay; assay type: ADME; details: recombinant enzyme
Cytochrome P450 2C19 = Cytochrome P450 2C19 (Homo sapiens, UniProt P33261); assay: Inhibition of recombinant human CYP2C19 at 1 uM by fluorescence assay; assay type: ADME; details: recombinant enzyme
[11] = biological target: T3, 5-hydroxytryptamine receptor 1A (Homo sapiens) (UniProt P08908); assay: Binding affinity to 5-HT1AR (unknown origin) at 1 uM relative to control
T3 sequence (whole entry): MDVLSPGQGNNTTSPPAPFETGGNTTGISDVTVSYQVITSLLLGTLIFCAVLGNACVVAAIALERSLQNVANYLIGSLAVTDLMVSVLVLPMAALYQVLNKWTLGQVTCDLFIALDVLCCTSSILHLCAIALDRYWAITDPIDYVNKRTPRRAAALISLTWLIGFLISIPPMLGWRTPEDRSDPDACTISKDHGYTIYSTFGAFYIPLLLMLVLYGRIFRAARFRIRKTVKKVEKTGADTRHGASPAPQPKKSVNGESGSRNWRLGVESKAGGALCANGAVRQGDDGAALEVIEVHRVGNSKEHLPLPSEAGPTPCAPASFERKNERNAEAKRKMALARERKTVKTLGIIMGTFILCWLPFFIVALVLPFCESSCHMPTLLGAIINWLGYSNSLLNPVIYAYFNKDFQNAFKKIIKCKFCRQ

[12] = biological target: Sodium-dependent dopamine transporter (Homo sapiens) (UniProt Q01959); assay: Binding affinity to dopamine transporter (unknown origin) at 1 uM
Cytochrome P450 2C9 = Cytochrome P450 2C9 (Homo sapiens, UniProt P11712); assay: Inhibition of recombinant human CYP2C9 at 1 uM by fluorescence assay; assay type: ADME; details: recombinant enzyme
HepG2 [13] = assay: Cytotoxicity against human HepG2 cells at 1 to 100 uM incubated for 20 hrs under serum free condition by MTT assay; assay type: cell-based; details: hepg2, 20 h
HepG2 [14] = assay: Cytotoxicity against human HepG2 cells at 1 to 100 uM incubated for 20 hrs under serum free condition by neutral red uptake assay; assay type: cell-based; details: hepg2, 20 h
[15] = biological target: 5-hydroxytryptamine receptor 2B (Homo sapiens) (UniProt P41595); assay: Binding affinity to 5-HT2BR (unknown origin) at 1 uM relative to control
[16] = Metabolic stability in human liver microsomes assessed as parent compound remaining at 1 uM in the presence of NADPH regenerating system after 60 mins by UPLC/MS analysis; assay type: ADME, Microsome; details: read-out: Stability
[17] = biological target: Sodium-dependent noradrenaline transporter (Homo sapiens) (UniProt P23975); assay: Binding affinity to noradrenaline transporter (unknown origin) at 1 uM
[18] = biological target: T4, Alpha-1A adrenergic receptor (Homo sapiens) (UniProt P35348); assay: Binding affinity to alpha 1a adrenergic receptor (unknown origin) at 1 uM relative to control
T4 sequence (whole entry): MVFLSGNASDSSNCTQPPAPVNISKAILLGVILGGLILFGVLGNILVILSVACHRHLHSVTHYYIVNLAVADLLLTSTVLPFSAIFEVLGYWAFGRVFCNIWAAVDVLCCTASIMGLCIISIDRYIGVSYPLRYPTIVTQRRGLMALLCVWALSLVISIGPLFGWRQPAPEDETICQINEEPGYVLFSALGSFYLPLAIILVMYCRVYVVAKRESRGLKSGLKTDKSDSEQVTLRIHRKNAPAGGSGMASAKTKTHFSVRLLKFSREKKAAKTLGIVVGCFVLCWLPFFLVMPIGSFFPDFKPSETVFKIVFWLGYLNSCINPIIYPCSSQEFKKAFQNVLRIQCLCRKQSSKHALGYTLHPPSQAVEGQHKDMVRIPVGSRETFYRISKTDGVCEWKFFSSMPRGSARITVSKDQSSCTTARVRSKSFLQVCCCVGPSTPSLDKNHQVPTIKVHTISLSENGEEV

[19] = biological target: Sodium-dependent serotonin transporter (Homo sapiens) (UniProt P31645); assay: Binding affinity to serotonin transporter (unknown origin) at 1 uM
CYP2D6 = CYP2D6 (Homo sapiens, UniProt P10635); assay: Inhibition of recombinant human CYP2D6 at 1 uM by fluorescence assay relative to control; assay type: ADME
[20] = biological target: T5, Alpha-2A adrenergic receptor (Homo sapiens) (UniProt P08913); assay: Binding affinity to alpha 2a adrenergic receptor (unknown origin) at 1 uM relative to control
T5 sequence (whole entry): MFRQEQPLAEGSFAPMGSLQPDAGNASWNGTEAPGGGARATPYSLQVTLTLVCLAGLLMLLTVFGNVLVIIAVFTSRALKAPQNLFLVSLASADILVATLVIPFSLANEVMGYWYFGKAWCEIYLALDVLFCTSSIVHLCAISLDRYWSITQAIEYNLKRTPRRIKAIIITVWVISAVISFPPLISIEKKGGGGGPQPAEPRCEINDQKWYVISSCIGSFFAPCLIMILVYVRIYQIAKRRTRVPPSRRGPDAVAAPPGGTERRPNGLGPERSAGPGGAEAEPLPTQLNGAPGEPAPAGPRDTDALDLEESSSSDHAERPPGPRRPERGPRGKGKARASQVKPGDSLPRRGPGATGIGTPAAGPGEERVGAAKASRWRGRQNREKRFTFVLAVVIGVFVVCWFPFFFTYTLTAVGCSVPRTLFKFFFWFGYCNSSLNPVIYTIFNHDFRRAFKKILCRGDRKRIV

Mu-type opioid receptor [21] = biological target: Mu-type opioid receptor (Homo sapiens, UniProt P35372); assay: Binding affinity to human mu opioid receptor by cell based assay
[22] = biological target: Mu-type opioid receptor (Cavia porcellus) (UniProt P97266); assay: Displacement of [3H]DAMGO from mu opioid receptor in guinea pig brain membranes at 1 uM after 120 mins by scintillation counting analysis relative to control; assay type: cell membranes
Mu-type opioid receptor (Cavia porcellus), sequence (P97266 whole entry): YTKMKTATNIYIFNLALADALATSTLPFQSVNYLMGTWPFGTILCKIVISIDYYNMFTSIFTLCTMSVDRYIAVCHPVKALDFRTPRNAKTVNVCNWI

Delta-type opioid receptor, sequence (P33533 whole entry): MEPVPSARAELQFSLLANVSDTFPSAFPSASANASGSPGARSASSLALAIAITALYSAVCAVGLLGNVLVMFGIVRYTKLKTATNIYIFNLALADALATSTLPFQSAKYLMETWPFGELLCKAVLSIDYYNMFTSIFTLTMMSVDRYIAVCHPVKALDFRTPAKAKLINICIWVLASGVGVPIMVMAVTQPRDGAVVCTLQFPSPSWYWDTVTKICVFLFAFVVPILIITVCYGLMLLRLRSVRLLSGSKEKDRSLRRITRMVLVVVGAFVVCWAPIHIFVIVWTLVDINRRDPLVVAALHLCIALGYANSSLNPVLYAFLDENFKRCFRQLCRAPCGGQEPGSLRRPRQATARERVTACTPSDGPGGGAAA
Cytochrome P450 2C9, sequence (P11712 whole entry): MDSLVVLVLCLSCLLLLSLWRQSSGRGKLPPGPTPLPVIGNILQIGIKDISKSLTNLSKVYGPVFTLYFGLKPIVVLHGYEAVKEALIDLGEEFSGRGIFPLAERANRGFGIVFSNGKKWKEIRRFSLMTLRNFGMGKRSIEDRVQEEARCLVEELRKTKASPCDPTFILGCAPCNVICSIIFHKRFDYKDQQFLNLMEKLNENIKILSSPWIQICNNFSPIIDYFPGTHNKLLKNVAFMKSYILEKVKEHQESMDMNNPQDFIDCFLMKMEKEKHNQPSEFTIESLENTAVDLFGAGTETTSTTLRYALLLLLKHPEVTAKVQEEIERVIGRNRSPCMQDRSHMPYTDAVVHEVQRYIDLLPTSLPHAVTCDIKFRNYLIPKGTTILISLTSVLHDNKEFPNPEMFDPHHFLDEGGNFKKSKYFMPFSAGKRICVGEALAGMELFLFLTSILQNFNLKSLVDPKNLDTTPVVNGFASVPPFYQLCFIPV
Sigma non-opioid intracellular receptor 1 (Homo sapiens, UniProt Q99720), sequence (Q99720 whole entry): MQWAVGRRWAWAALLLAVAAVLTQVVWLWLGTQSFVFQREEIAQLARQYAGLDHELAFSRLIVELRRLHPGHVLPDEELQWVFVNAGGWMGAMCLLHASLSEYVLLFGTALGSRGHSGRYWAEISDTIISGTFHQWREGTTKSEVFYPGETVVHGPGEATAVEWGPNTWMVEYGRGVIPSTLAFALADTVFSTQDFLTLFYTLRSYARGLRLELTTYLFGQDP
Sodium-dependent noradrenaline transporter (Homo sapiens), sequence (P23975 whole entry): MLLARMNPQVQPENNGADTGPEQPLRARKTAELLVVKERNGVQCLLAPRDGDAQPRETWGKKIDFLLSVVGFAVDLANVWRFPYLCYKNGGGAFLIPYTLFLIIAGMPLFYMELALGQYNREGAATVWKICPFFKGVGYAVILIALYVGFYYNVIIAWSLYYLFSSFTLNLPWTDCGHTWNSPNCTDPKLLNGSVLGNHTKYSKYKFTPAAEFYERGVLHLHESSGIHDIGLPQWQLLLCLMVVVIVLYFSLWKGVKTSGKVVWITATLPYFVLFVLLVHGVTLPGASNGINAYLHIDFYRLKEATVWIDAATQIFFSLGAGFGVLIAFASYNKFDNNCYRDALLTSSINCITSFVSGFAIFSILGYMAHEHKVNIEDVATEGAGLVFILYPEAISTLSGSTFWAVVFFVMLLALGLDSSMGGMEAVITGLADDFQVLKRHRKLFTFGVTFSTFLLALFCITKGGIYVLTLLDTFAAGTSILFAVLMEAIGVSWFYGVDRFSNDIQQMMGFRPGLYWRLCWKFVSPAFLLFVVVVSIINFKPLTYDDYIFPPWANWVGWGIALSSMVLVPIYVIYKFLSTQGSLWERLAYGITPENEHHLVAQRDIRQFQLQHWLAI
Sodium-dependent serotonin transporter (Homo sapiens), sequence (P31645 whole entry, looked up): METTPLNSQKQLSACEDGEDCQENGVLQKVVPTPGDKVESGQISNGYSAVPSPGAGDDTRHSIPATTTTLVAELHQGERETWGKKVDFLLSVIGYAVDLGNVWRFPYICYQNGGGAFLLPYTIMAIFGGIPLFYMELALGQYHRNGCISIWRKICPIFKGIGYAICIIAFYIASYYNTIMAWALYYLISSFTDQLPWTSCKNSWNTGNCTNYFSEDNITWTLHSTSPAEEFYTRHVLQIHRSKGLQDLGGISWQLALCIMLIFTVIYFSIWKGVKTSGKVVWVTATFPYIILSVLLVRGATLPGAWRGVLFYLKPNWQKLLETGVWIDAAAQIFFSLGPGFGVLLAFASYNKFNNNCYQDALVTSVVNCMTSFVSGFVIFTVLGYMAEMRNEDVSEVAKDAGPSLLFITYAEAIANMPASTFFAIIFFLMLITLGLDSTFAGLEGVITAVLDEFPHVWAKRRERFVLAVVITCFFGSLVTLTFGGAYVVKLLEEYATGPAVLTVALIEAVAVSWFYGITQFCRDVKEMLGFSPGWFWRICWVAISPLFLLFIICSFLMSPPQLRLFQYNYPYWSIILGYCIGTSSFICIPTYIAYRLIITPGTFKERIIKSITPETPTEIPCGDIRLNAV
Sodium-dependent dopamine transporter (Homo sapiens), sequence (Q01959 whole entry): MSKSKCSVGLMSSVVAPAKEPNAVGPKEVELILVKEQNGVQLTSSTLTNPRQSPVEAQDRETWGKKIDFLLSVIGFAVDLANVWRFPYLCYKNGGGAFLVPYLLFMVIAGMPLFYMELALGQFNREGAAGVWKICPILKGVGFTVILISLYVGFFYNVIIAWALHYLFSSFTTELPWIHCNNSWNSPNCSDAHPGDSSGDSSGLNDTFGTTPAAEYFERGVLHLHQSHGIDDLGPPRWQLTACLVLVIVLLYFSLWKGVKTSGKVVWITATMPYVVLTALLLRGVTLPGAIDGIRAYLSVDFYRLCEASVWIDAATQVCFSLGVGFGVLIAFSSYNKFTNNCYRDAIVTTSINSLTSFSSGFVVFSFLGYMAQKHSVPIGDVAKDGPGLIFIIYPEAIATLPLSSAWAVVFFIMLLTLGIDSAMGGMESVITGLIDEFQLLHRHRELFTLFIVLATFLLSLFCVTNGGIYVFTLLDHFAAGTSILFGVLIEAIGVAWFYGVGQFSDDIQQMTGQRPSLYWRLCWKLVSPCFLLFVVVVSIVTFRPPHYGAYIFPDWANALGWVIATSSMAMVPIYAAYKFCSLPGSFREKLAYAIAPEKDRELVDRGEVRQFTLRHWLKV
Mu-type opioid receptor (Cavia porcellus, UniProt P97266), sequence (P97266 whole entry): as the sequence (P97266 whole entry) above
Kappa-type opioid receptor, sequence (P41144 whole entry): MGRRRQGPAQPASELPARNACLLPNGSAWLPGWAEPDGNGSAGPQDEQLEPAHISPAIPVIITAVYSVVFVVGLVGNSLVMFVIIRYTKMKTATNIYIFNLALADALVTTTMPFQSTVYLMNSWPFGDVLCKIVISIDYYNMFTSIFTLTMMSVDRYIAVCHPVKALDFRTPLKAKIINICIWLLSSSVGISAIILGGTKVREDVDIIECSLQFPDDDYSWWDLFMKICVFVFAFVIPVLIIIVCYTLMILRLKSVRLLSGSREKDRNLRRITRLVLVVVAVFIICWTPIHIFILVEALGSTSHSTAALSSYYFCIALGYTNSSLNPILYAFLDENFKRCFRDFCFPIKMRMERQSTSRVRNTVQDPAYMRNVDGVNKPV
Cytochrome P450 3A4, sequence (P08684 whole entry): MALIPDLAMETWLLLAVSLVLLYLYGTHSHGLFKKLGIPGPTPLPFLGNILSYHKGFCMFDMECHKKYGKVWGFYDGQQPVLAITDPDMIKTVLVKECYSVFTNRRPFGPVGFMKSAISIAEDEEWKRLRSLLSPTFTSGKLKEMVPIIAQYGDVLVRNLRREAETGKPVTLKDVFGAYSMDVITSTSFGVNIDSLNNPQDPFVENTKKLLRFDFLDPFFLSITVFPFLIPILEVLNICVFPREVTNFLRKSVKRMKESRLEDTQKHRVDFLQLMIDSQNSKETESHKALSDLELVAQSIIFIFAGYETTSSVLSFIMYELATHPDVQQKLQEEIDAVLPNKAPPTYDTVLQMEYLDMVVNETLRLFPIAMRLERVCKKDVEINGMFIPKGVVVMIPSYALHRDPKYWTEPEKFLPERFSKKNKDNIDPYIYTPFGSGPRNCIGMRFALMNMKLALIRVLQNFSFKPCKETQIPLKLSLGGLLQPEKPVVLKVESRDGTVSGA
Sigma non-opioid intracellular receptor 1 (Cavia porcellus, UniProt Q60492), sequence (Q60492 whole entry): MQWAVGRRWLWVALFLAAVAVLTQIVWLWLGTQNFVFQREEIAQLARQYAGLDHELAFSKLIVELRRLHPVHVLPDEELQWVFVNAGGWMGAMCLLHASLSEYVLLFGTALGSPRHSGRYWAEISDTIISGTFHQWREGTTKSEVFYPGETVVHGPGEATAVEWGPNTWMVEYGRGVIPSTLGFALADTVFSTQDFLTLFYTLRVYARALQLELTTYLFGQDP
Cytochrome P450 2C19, sequence (P33261 whole entry): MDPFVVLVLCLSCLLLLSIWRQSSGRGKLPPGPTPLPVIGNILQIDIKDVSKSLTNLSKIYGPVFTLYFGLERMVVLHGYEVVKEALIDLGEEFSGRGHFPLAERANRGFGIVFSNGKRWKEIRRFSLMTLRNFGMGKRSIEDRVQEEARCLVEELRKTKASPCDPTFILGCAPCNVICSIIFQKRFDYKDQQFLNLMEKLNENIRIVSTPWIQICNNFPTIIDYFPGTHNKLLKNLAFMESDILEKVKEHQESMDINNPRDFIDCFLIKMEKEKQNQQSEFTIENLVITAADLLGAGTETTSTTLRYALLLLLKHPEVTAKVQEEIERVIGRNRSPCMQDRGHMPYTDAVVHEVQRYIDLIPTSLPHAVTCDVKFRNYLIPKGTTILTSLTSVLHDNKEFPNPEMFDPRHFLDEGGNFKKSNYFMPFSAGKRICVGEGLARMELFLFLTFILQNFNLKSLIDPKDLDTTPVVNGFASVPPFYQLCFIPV
Sigma intracellular receptor 2 (Homo sapiens, UniProt Q5BJF2), sequence (Q5BJF2 whole entry): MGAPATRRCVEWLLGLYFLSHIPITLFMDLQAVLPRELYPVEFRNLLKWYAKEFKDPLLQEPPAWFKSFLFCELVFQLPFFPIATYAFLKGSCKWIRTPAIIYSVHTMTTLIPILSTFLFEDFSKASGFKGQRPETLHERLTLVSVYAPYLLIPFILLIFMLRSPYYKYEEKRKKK

SMILES	Ki [1] [nM]	Ki (Mu-type opioid receptor [3]) [nM]	Ki [4] [nM]	Ratio Ki [5]	Ki [8] [nM]	Activity (Sus scrofa)	Ki [9] [nM]	Ki [10] [nM]	inhibition (INH) (Cytochrome P450 1A2)	inhibition (INH) (Cytochrome P450 3A4)	inhibition (INH) (Cytochrome P450 2C19)	Activity [11]	Activity [12]	inhibition (INH) (Cytochrome P450 2C9)	Activity [15]	remaining at 1 h, 1 µM [16] [%]	Activity [17]	Activity [18]	Activity (HepG2 [13])	Activity (HepG2 [14])	other results
COC1O[C@]2(CC[C@H](NCc3ccccc3)CC2)c2ccccc21 (some centres undefined)	413	115	262	5 to 10																	inhibition [2]: 30%; inhibition [6]: 25%
COC1Cc2ccccc2[C@]2(CC[C@@H](NCc3ccccc3)CC2)O1 (some centres undefined)	204	38		5 to 10	2000	inactive	49														inhibition [7]: 40%; Ratio Ki (Cavia porcellus): 14
COC1Cc2ccccc2[C@]2(CC[C@@H](N(C)CC3CCCCC3)CC2)O1 (some centres undefined)	980	299	3.1	50	154	inactive	150	6.9	Not Active	Not Active	Not Active	inactive	inactive	Not Active	inactive	> 50	inactive	inactive	Non-Toxic	Non-Toxic	Activity [19]: inactive; inhibition at 1 µM (CYP2D6): > 90%; Activity [20]: inactive
c1ccc(CN[C@H]2CC[C@@]3(CC2)OCCc2ccccc23)cc1	85	31	256	5 to 10			14														Ratio Ki (Cavia porcellus): 8.5; inhibition [6]: 13%

Now from value to compound, other results behind:

Ki [1] [nM]	Ki (Mu-type opioid receptor [3]) [nM]	Ki [4] [nM]	Ratio Ki [5]	Ki [8] [nM]	Activity (Sus scrofa)	Ki [9] [nM]	Ki [10] [nM]	inhibition (INH) (Cytochrome P450 1A2)	inhibition (INH) (Cytochrome P450 3A4)	inhibition (INH) (Cytochrome P450 2C19)	Activity [11]	Activity [12]	inhibition (INH) (Cytochrome P450 2C9)	Activity [15]	remaining at 1 h, 1 µM [16] [%]	Activity [17]	Activity [18]	SMILES	Activity (HepG2 [13])	Activity (HepG2 [14])	other results
250	41		5 to 10	1440	inactive	371	40	Not Active	Not Active	Not Active	inactive	inactive	Not Active	inactive	> 50	inactive	inactive	COC1Cc2ccccc2[C@]2(CC[C@@H](N(C)Cc3ccccc3)CC2)O1 (some centres undefined)	Non-Toxic	Non-Toxic	Ki (Mu-type opioid receptor [21]): 18 nM; Activity [19]: inactive; inhibition at 1 µM (CYP2D6): > 90%; Activity [20]: inactive
2300			5 to 10	329	inactive	1300	39	Not Active	Not Active	Not Active	inactive	inactive	Not Active	inactive	> 50	inactive	inactive	COC1Cc2ccccc2[C@]2(CC[C@H](N(C)Cc3ccccc3)CC2)O1 (some centres undefined)	Non-Toxic	Non-Toxic	inhibition [22]: 12%; Activity [19]: inactive; inhibition at 1 µM (CYP2D6): > 90%; Activity [20]: inactive
